Data published in patent US10407467B2, “Polymyxin derivatives and their use in combination therapy together with different antibiotics” (priority 2013, dated 2019).
Where a name gives a salt, the structure may show the parent alone. Numbered stars: 1 amine (or outer) side, 2 acyl side, 3 side chain; on linkers, the order of the positions; unused ones are H or OH. Bridge positions count the residues as written; N and C are the ends. Square brackets hold non-standard residues; d marks the D form. Peptide text beside a SMILES is read from it. * marks the point of attachment. ξ: configuration not given here. Cyclohexanoyl(cis-4-NH2) = N[C@H]1CC[C@@H](C(=O)*)CC1; GABA(4S-Me) = C[C@@H](CCC(=O)[*:2])N[*:1]; NMeGABA = CN(CCCC(=O)[*:2])[*:1]; X8 = N[C@@H]1CC[C@H](C(=O)*)C1; Thr(3ξ) = CC(O)[C@H](N)C(=O)O; Propanoyl(3-OH) = O=C(CCO)*; Dab = NCC[C@H](N)C(=O)O; Inp = O=C(O)C1CCNCC1; Glycolyl = O=C(CO)*

How the values were obtained:
Type in all cases: cell-based
Escherichia coli [1] = experiment: MIC, compound in combination with a second agent (broth microdilution); details: 1:1 (wt:wt) combination with Rifampicin, MIC = total drug concentration; for MIC E. coli ATCC25922: strain ATCC25922
Procedure, shortened: (§1)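 Compound and second agent (e.g. rifampicin) were combined 1:1 w/w, compound weighed as its TFA or sulphate salt. Inoculum was a direct colony suspension from 18-24 hour Mueller-Hinton agar at 0.5 McFarland. MIC is the total drug concentration; lower of duplicates reported, modal value when tested repeatedly.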

Klebsiella pneumoniae [2] = experiment: as above; details: 1:1 (wt:wt) combination with Rifampicin, MIC = total drug concentration; for MIC K. pneumoniae ATCC-BAA-2146: strain ATCC-BAA-2146; for MIC K. pneumoniae CCUG-59348: strain CCUG-59348; for MIC K. pneumoniae NCTC 13438: strain NCTC 13438; for MIC K. pneumoniae ATCC 4352: strain ATCC 4352
Procedure, shortened: as §1

Pseudomonas aeruginosa [3] = experiment: MIC, sole activity (no second agent); details: in the absence of Rifampicin; strain ATCC27853
Procedure, shortened: (§2)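 Inoculum: direct colony suspension (18-24 h MH agar), 0.5 McFarland. Medium: cation-adjusted MHB. Up to 4 strains/species; reported relative to Polymyxin B.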

Escherichia coli [4] = experiment: MIC, sole activity (no second agent); details: in the absence of Rifampicin; strain ATCC25922
Procedure, shortened: as §2

Klebsiella pneumoniae [5] = experiment: MIC, sole activity (no second agent); details: in the absence of Rifampicin; strain ATCC 4352
Procedure, shortened: as §2

Pseudomonas aeruginosa [6] = experiment: MIC, compound in combination with a second agent (broth microdilution); details: 1:1 (wt:wt) combination with Rifampicin, MIC = total drug concentration; for MIC P. aeruginosa CCUG 59626: strain CCUG 59626; for MIC P. aeruginosa ATCC CRM-9027: strain ATCC CRM-9027; for MIC P. aeruginosa ATCC 27853: strain ATCC 27853
Procedure, shortened: as §1

Acinetobacter baumannii = experiment: as above; details: 1:1 (wt:wt) combination with Rifampicin, MIC = total drug concentration; for MIC A. baumannii NCTC 13424: strain NCTC 13424
Procedure, shortened: as §1

Row | Structure (SMILES) | MIC E. coli ATCC25922 (Escherichia coli [1]) [micrograms/mL] | MIC E. coli NCTC9001 (Escherichia coli [1]; strain NCTC9001) [micrograms/mL] | MIC K. pneumoniae ATCC-BAA-2146 (Klebsiella pneumoniae [2]) [micrograms/mL] | MIC K. pneumoniae CCUG-59348 (Klebsiella pneumoniae [2]) [micrograms/mL] | MIC K. pneumoniae NCTC 13438 (Klebsiella pneumoniae [2]) [micrograms/mL] | MIC P. aeruginosa ATCC 27853 (Pseudomonas aeruginosa [3]) [micrograms/mL] | MIC E. coli ATCC25922 (Escherichia coli [4]) [micrograms/mL] | MIC K. pneumoniae ATCC 4352 (Klebsiella pneumoniae [5]) [micrograms/mL] | MIC P. aeruginosa CCUG 59626 (Pseudomonas aeruginosa [6]) [micrograms/mL] | MIC A. baumannii NCTC 13424 (Acinetobacter baumannii) [micrograms/mL] | MIC P. aeruginosa ATCC CRM-9027 (Pseudomonas aeruginosa [6]) [micrograms/mL] | MIC P. aeruginosa ATCC-47 (Pseudomonas aeruginosa [6]; strain ATCC-47) [micrograms/mL] | MIC A. baumannii CCUG57249 (Acinetobacter baumannii; strain CCUG57249) [micrograms/mL] | MIC P. aeruginosa ATCC 27853 (Pseudomonas aeruginosa [6]) [micrograms/mL] | MIC K. pneumoniae ATCC 4352 (Klebsiella pneumoniae [2]) [micrograms/mL]
1 | CC(C)C[C@@H]1NC(=O)[C@@H](CC(C)C)NC(=O)[C@H](CCN)NC(=O)[C@@H](NC(=O)[C@H](CCN)NC(=O)[C@@H](NC(=O)C(O)C2CCCCC2)C(C)O)CCNC(=O)[C@H](C(C)O)NC(=O)[C@H](CCN)NC(=O)[C@H](CCN)NC1=O (single isomer, unassigned; isomer 2) [Example 32, 2(RS)-(2-Hydroxy-2-cyclohexyl)ethanoyl polymyxin E nonapeptide, TFA salt. Isomer 2] | 0.5 | 1 | 1 | 2 | 1 |  |  |  |  |  |  |  |  |  | 
2 | CC(C)C[C@@H]1NC(=O)[C@@H](Cc2ccccc2)NC(=O)[C@H](CCN)NC(=O)[C@@H](NC(=O)[C@H](CCN)NC(=O)[C@@H](NC(=O)CO)C(C)O)CCNC(=O)[C@H](C(C)O)NC(=O)[C@H](CCN)NC(=O)[C@H](CCN)NC1=O (stereo partly drawn) [Example 8, Hydroxyacetyl polymyxin B nonapeptide] (Glycolyl-[Thr(3ξ)][Dab][Dab][Dab][dF]L[Dab][Dab][Thr(3ξ)]; lactam 3-C) |  |  | 2 | 8 |  | 0.25 | 32 | 8 | 0.25 | 0.5 |  |  |  |  | 
3 | CNCCCC(=O)N[C@H](C(=O)N[C@@H](CCN)C(=O)N[C@H]1CCNC(=O)[C@H](C(C)O)NC(=O)[C@H](CCN)NC(=O)[C@H](CCN)NC(=O)[C@H](CC(C)C)NC(=O)[C@@H](Cc2ccccc2)NC(=O)[C@H](CCN)NC1=O)C(C)O (stereo partly drawn) [Example 16, 4-(N-methylamino)-butanoyl polymyxin B nonapeptide] (NMeGABA-[Thr(3ξ)][Dab][Dab][Dab][dF]L[Dab][Dab][Thr(3ξ)]; lactam 3-C) |  |  |  |  | 0.5 | 0.25 | 0.5 | 0.5 | 0.125 | 0.125 | 0.125 |  |  |  | 
4 | CC(C)C[C@@H]1NC(=O)[C@@H](Cc2ccccc2)NC(=O)[C@H](CCN)NC(=O)[C@@H](NC(=O)[C@H](CCN)NC(=O)[C@@H](NC(=O)[C@H]2CC[C@@H](N)CC2)C(C)O)CCNC(=O)[C@H](C(C)O)NC(=O)[C@H](CCN)NC(=O)[C@H](CCN)NC1=O (stereo partly drawn) [Example 20, Cis-4-aminocyclohexane carbonyl polymyxin B nonapeptide] ({Cyclohexanoyl(cis-4-NH2)}-[Thr(3ξ)][Dab][Dab][Dab][dF]L[Dab][Dab][Thr(3ξ)]; lactam 3-C) |  |  | 0.25 | 4 | 0.25 | 0.125 | 2 | 0.125 | 0.125 | <0.06 |  | 0.125 | ≤0.06 |  | 
5 | CC(C)C[C@@H]1NC(=O)[C@@H](Cc2ccccc2)NC(=O)[C@H](CCN)NC(=O)[C@@H](NC(=O)[C@H](CCN)NC(=O)[C@@H](NC(=O)CC[C@H](C)N)C(C)O)CCNC(=O)[C@H](C(C)O)NC(=O)[C@H](CCN)NC(=O)[C@H](CCN)NC1=O (stereo partly drawn) [Example 24, 4S-aminopentanoyl polymyxin B nonapeptide] ({GABA(4S-Me)}-[Thr(3ξ)][Dab][Dab][Dab][dF]L[Dab][Dab][Thr(3ξ)]; lactam 3-C) |  |  | 0.5 | 8 |  | 0.25 | >32 | 0.5 | 0.25 | 0.5 |  |  |  |  | 
6 | CC(C)C[C@@H]1NC(=O)[C@@H](Cc2ccccc2)NC(=O)[C@H](CCN)NC(=O)[C@@H](NC(=O)[C@H](CCN)NC(=O)[C@@H](NC(=O)CCO)C(C)O)CCNC(=O)[C@H](C(C)O)NC(=O)[C@H](CCN)NC(=O)[C@H](CCN)NC1=O (stereo partly drawn) [Example 26, 3-Hydroxypropanoyl polymyxinB nonapeptide] ({Propanoyl(3-OH)}-[Thr(3ξ)][Dab][Dab][Dab][dF]L[Dab][Dab][Thr(3ξ)]; lactam 3-C) |  |  | 2 | 8 |  | 0.5 | >32 | 4 | 0.25 | 0.5 |  |  |  |  | 
7 | CC(C)C[C@@H]1NC(=O)[C@@H](Cc2ccccc2)NC(=O)[C@H](CCN)NC(=O)[C@@H](NC(=O)[C@H](CCN)NC(=O)[C@@H](NC(=O)[C@H]2CC[C@@H](N)C2)C(C)O)CCNC(=O)[C@H](C(C)O)NC(=O)[C@H](CCN)NC(=O)[C@H](CCN)NC1=O (stereo partly drawn) [Example 34B, (1S,3R)-3- Aminocyclopentane carbonyl polymyxin B nonapeptide] (X8-[Thr(3ξ)][Dab][Dab][Dab][dF]L[Dab][Dab][Thr(3ξ)]; lactam 3-C) | <0.06 |  |  |  |  |  |  |  |  |  | 0.25 |  |  |  | 
8 | CC(C)C[C@@H]1NC(=O)[C@@H](Cc2ccccc2)NC(=O)[C@H](CCN)NC(=O)[C@@H](NC(=O)[C@H](CCN)NC(=O)[C@@H](NC(=O)[C@H](CCN)NC(=O)C2CCNCC2)C(C)O)CCNC(=O)[C@H](C(C)O)NC(=O)[C@H](CCN)NC(=O)[C@H](CCN)NC1=O (stereo partly drawn) [Example 53, Piperidin-4-yl carbonyl-polymyxin B decapeptide, trifluoroacetate salt] (H-[Inp][Dab][Thr(3ξ)][Dab][Dab][Dab][dF]L[Dab][Dab][Thr(3ξ)]; lactam 5-C) | 0.125 |  | 1 | 4 |  |  |  |  | ≤0.06 |  |  |  |  | ≤0.06 | ≤0.06
9 | CC(C)C[C@@H]1NC(=O)[C@@H](Cc2ccccc2)NC(=O)[C@H](CCN)NC(=O)[C@@H](NC(=O)[C@H](CCN)NC(=O)[C@@H](NC(=O)[C@H](CCCCN)NC(=O)C2CCNCC2)C(C)O)CCNC(=O)[C@H](C(C)O)NC(=O)[C@H](CCN)NC(=O)[C@H](CCN)NC1=O (stereo partly drawn) [Example 54, Piperidin-4-yl carbonyl-L-Lys-polymyxin B nonapeptide, trifluoroacetate salt] (H-[Inp]K[Thr(3ξ)][Dab][Dab][Dab][dF]L[Dab][Dab][Thr(3ξ)]; lactam 5-C) | 0.25 |  | 1 | 4 |  |  |  |  | ≤0.06 |  |  |  |  | ≤0.06 | 0.125
